The source of these data is PubChem BioAssay AID1963833 (Molecular Pharmacology Branch, DTP, NCI, 2024).

SMILES strings stand for the structures. Several values for one entry are separate records, joined by “and”; a condition that tells them apart may be missing. Equal values may be shown once.

The subject of this assay is 883617-216-R-J1-PDC complex spheroid viability. The assay is described as follows: Anticancer human tumor 883617-216-R-J1-PDC patient-derived bladder carcinoma cell line growth inhibition [POLQ]. Conditions: for viability, T/C: stronger effect = lower value. An outline of the steps: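 Growth inhibition in 3D: complex spheroids (tumor PDC, HUVEC, MSC) treated with POLQ inhibitor combinations; where Cmax unknown, highest tested concentration 10 microM, except SN-38 at 1 microM.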
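Note: spheroids exposed to compounds for seven days before readout.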
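Throughout, for viability, T/C: 100% = DMSO vehicle control viability.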

In the case of `O=C(c1cc(Cc2n[nH]c(=O)c3ccccc23)ccc1F)N1CCN(C(=O)C2CC2)CC1` + Cc1cccc(N(C)C(=O)C2C(O)CCN2c2nc(C)cc(C(F)(F)F)c2C#N)c1, the IC50 (curve of first compound, second compound 0.0316 µM) was greater than 10 µM; the 50% inhibitory concentration (IC50) (curve of first compound, second compound 0.1 µM) was greater than 10 µM; the IC50 (curve of first compound, second compound 0.316 µM) is greater than 10 µM; the half-inhibitory concentration (IC50) (curve of first compound, second compound 1 µM) is greater than 10 µM; the half-maximal inhibitory concentration (IC50) (curve of first compound, second compound 3.16 µM) was greater than 10 µM; the IC50 (curve of first compound, second compound 10 µM) is greater than 10 µM. Also, the viability, T/C reads like this: (second compound 0.0316 µM, first compound 0.0316 µM) 111%; (second compound 0.0316 µM, first compound 0.1 µM) 89.4%; (second compound 0.0316 µM, first compound 0.316 µM) 82.2%; (second compound 0.0316 µM, first compound 1 µM) 94.9%; (second compound 0.0316 µM, first compound 3.16 µM) 79.3%; (second compound 0.0316 µM, first compound 10 µM) 64.6%. In addition, the viability, T/C by setting is: (second compound 0.1 µM, first compound 0.0316 µM) 111%; (second compound 0.1 µM, first compound 0.1 µM) 94%; (second compound 0.1 µM, first compound 0.316 µM) 91%; (second compound 0.1 µM, first compound 1 µM) 90.2%; (second compound 0.1 µM, first compound 3.16 µM) 80.3%; (second compound 0.1 µM, first compound 10 µM) 66.7%. Also, the viability, T/C reads like this: (second compound 0.316 µM, first compound 0.0316 µM) 112%; (second compound 0.316 µM, first compound 0.1 µM) 90.3%; (second compound 0.316 µM, first compound 0.316 µM) 89.8%; (second compound 0.316 µM, first compound 1 µM) 93.1%; (second compound 0.316 µM, first compound 3.16 µM) 82.6%; (second compound 0.316 µM, first compound 10 µM) 70.4%. Besides, the viability, T/C by setting is: (second compound 1 µM, first compound 0.0316 µM) 98.7%; (second compound 1 µM, first compound 0.1 µM) 94.1%; (second compound 1 µM, first compound 0.316 µM) 90.9%; (second compound 1 µM, first compound 1 µM) 90.5%; (second compound 1 µM, first compound 3.16 µM) 92%; (second compound 1 µM, first compound 10 µM) 66.4%. Moreover, the viability, T/C (second compound 3.16 µM, first compound 0.0316 µM) is 93.3%; the viability, T/C (second compound 3.16 µM, first compound 0.1 µM) is 94.6%; the viability, T/C (second compound 3.16 µM, first compound 0.316 µM) is 90.5%; the viability, T/C (second compound 3.16 µM, first compound 1 µM) was 78.3%; the viability, T/C (second compound 3.16 µM, first compound 3.16 µM) was 87.3%; the viability, T/C (second compound 3.16 µM, first compound 10 µM) was 71.6%. The viability, T/C (second compound 10 µM, first compound 0.0316 µM) was 114%; the viability, T/C (second compound 10 µM, first compound 0.1 µM) was 107%; the viability, T/C (second compound 10 µM, first compound 0.316 µM) was 120%; the viability, T/C (second compound 10 µM, first compound 1 µM) was 99.9%; the viability, T/C (second compound 10 µM, first compound 3.16 µM) was 95%; the viability, T/C (second compound 10 µM, first compound 10 µM) is 77.5%.

For `CC[C@@]1(O)C(=O)OCc2c1cc1n(c2=O)Cc2cc3c(CN(C)C)c(O)ccc3nc2-1`, the viability, T/C (compound 0.000316 µM) is 97.3% and 105% and 101%; the viability, T/C (compound 0.001 µM) was 92.3% and 95.7% and 97%; the viability, T/C (compound 0.00316 µM) is 104% and 94.3% and 91.6%; the viability, T/C (compound 0.01 µM) was 83.4% and 88.9% and 88.8%; the viability, T/C (compound 0.0316 µM) was 65.8% and 77.7% and 65.3%; the viability, T/C (compound 0.1 µM) was 53.6% and 63.2% and 48.6%. Besides, the half-inhibitory concentration (IC50) (curve of compound) was > 0.1 µM and 0.0898 µM.

For `CC(=O)O[C@H]1C(=O)[C@@]2(C)[C@H]([C@H](OC(=O)c3ccccc3)[C@]3(O)C[C@H](OC(=O)[C@H](O)[C@@H](NC(=O)c4ccccc4)c4ccccc4)C(C)=C1C3(C)C)[C@]1(OC(C)=O)CO[C@@H]1C[C@@H]2O`, the viability, T/C by setting is: (compound 0.00949 µM) 44.9% and 57% and 43.1%; (compound 0.03 µM) 32.5% and 35.8% and 26.7%; (compound 0.0949 µM) 22.9% and 26.7% and 15.8%; (compound 0.3 µM) 30.6% and 21.1% and 24.6%; (compound 0.949 µM) 28.4% and 23.5% and 25.1%; (compound 3 µM) 26.5% and 19.3% (2×). In addition, for the setting “curve of compound”, the IC50 is < 0.00949 µM and 0.0139 µM.

In general, IC50 refers to the midpoint of a concentration-inhibition curve. For orientation: viability, T/C means the result in the treated group divided by that in the control group, in per cent.
